# In EP4129324A1, “COMPOSITIONS COMPRISING AT LEAST AN AMYLIN RECEPTOR AGONIST AND A GLP-1 RECEPTOR AGONIST” (Adocia, priority 2021, dated 2023):
# “Also recorded” adds a separate entry of the source.
# Test system: gastro-intestinal transit (gastric emptying) in the mouse
# Assay: Gastric emptying (stomach content weight) after charcoal suspension in fasted mice, subcutaneous administration
# Format: in vivo
# Conditions: male Swiss mice, subcutaneous injection of a composition comprising pramlintide alone, versus vehicle
# Protocol: The aim of this study was to evaluate the effects of pramlintide (compositions C7-1 and C7-2) and co-administration of pramlintide (compositions C7-1 and C7-2) and exenatide (C7-3 and C7-4) on gastro-intestinal transit (gastric emptying) in the mouse.
# Co-administration means that the composition of pramlintide and the composition of exenatide were administered separately.
# Studies were conducted on naive male Swiss mice (Janvier Lab) as no gender specific effect were expected. Body weight range of 25-32 g were included in the analysis.
# Mice were approximately fasted for 18 hours (~T0-18 h). The gastric emptying (i.e. stomach content) was measured via the administration of a suspension of charcoal at T0 (activated charcoal (0.4 ml/mouse, […]; Sigma Reference number C9157), suspended 10% with 2.5% arabic gum in distilled water). […] Afterwards, the stomach was opened, the contents washed out and the weight recorded again (empty stomach weight).
# The results are expressed as the variation of gastric content with the administration compositions comprising pramlintide compared with the gastric content with administration the vehicle (weight of gastric content with pramlintide / weight of gastric content with vehicle). […]
substance,measurement,value
Lys-Cys-Asn-Thr-Ala-Thr-Cys-Ala-Thr-Gln-Arg-Leu-Ala-Asn-Phe-Leu-Val-His-Ser-Ser-Asn-Asn-Phe-Gly-Pro-lle-Leu-Pro-Pro-Thr-Asn-Val-Gly-Ser- Asn-Thr-Tyr [pramlintide],"stomach (gastric) content weight, i.e. gastric emptying, result in words",increases the stomach content weight; also recorded: increases the gastric content weight
